Literature values in patent US11346820B2, “HPLC-PDA method and uses thereof in phytoestrogen measurement” (The Board Of Regents, The University of Texas System, priority 2019, dated 2022).
Read-outs that look alike come from different tables or passages of the source.

Conditions: nonrepresentative subset of adults, N=199, Valentin-Blasini, et al.

means recovered [ng/mL] | means recovered (units converted) [µmol/L] | Compound
129 | 0.477 | O=c1c(-c2ccc(O)cc2)coc2cc(O)cc(O)c12 [Genistein]
36 | 0.148 | Oc1ccc([C@H]2COc3cc(O)ccc3C2)cc1 (racemic) [Equol]
